In patent US20220000110A1, “COMPOSITIONS COMPRISING PYRIDINE CARBOXYLATE HERBICIDES AND CELLULOSE BIOSYNTHESIS INHIBITOR HERBICIDES” (priority 2018, published 2022):
Where two headings read alike, the source gives them in different places.

Columns and labels:
Type in all cases: in vivo
[1] = tested on: Hordeum vulgare (spring barley); details: HORVS
Text: (§1) Greenhouse Trial Methodology—Evaluation of Postemergence Herbicidal Effect
(§2) Seeds of the desired test plant species were planted in a 90:10% v/v (volume/volume) mixture of PRO-MIX® BX (Premier Tech Horticulture, Quakertown, Pa., USA) and PROFILE® GREENS GRADE™ (Profile Products LLC, Buffalo Grove, Ill., USA) planting mixture, which typically has a pH of 5.2 to 6.2 and an organic matter content of at least 50 percent, in plastic pots with a surface area of 103.2 square centimeters (cm^2). In some aspects, to help ensure good germination and healthy plants, a fungicide treatment and/or other chemical or physical treatment was applied. The plants were grown for 7-36 days (d) in a greenhouse with an approximate 14-hour (h) photoperiod which was maintained at about 23° C. during the day and 22° C. during the night. Nutrients and water were added on a regular basis and supplemental lighting was provided with overhead metal halide 1000-Watt lamps as necessary. The plants were employed for testing when they reached the second or third true leaf stage.
(§3) Emulsifiable concentrates of each of each pyridine carboxylate herbicide (Compound A or Compound B) were prepared at 100 grams acid equivalent per liter (g ae/L). The emulsifiable concentrates also included a safener, at 120 grams active ingredient per liter (g ai/L). An aliquot of each emulsifiable concentrate was placed in a 25 mL glass vial and diluted with an aqueous mixture of 1.25% (v/v) ACTIROB® B esterified rapeseed oil (Bayer Crop Science, Research Triangle Park, N.C., USA) or MSO® Concentrate with LECI-TECH® methylated soybean oil (Loveland Products, Loveland, Colo., USA) to obtain concentrated stock solutions at the highest application rate for each herbicide, based upon a 12 milliliter (mL) application volume at a rate of 187 liters per hectare (L/ha). The concentrated stock solutions were further diluted with an aqueous mixture of 1.25% v/v ACTIROB® B or MSO® Concentrate with LECI-TECH® to obtain stock solutions at reduced application rates for each herbicide. Spray solutions of the herbicide combinations (Compound A or Compound B plus the CBI herbicide) were prepared by adding weighed amounts or aliquots of the CBI herbicide to the stock solutions of Compound A or Compound B to form 12-mL spray solutions in two-way combinations.
(§4) The spray solutions were applied to the plant material with an overhead Mandel track sprayer equipped with 8002E nozzles calibrated to deliver 187 L/ha over an application area of 0.503 square meters (m^2) at a spray height of 18 inches (43 centimeters (cm)) above the average plant canopy. Control plants were sprayed in the same manner with the solvent blank. All pyridine carboxylate herbicide (component a) application rates are given as “g ae/ha” and all CBI herbicide (component b) application rates are given as “g ai/ha.”
(§5) The treated plants and control plants were placed in a greenhouse as described above and watered by sub-irrigation to prevent wash-off of the test compounds. After 20-22 d, the condition of the test plants as compared with that of the control plants was determined visually and scored on a scale of 0 to 100 percent where 0 corresponds to no injury and 100 corresponds to complete kill.

[2] = tested on: Triticum aestivum (spring wheat); details: TRZAS
Text: as §1, §2, §3, §4, §5

[3] = tested on: Cyperus esculentus (nutsedge); test: Greenhouse postemergence herbicidal effect, visual injury after 20-22 d; details: Table 1, CYPES
Text: as §1, §2, §3, §4, §5

[4] = tested on: Brassica napus (winter rape); test: as above; details: BRSNW
Text: as §1, §2, §3, §4, §5

[5] = tested on: Abutilon theophrasti (velvetleaf); test: as above; details: ABUTH
Text: as §1, §2, §3, §4, §5

[6] = tested on: Glycine max (soybean); test: as above; details: Table 1, GLXMA
Text: as §1, §2, §3, §4, §5

[7] = tested on: Ipomoea hederacea (ivyleaf morningglory); test: as above; details: IPOHE
Text: as §1, §2, §3, §4, §5

[8] = tested on: Stellaria media (chickweed); test: as above; details: Table 1, STEME
Text: as §1, §2, §3, §4, §5

[9] = tested on: Rumex obtusifolius (broad-leaf dock); test: as above; details: Table 1, RUMOB
Text: as §1, §2, §3, §4, §5

[10] = tested on: Cirsium arvense (Canadian thistle); test: as above; details: CIRAR
Text: as §1, §2, §3, §4, §5

[11] = tested on: Euphorbia heterophylla (poinsettia); test: as above; details: Table 1, EPHHL
Text: as §1, §2, §3, §4, §5

[12] = tested on: Echinochloa crus-galli (barnyard grass); test: as above; details: ECHCG
Text: as §1, §2, §3, §4, §5

[13] = tested on: Brassica napus (spring rape); test: as above; details: BRSNN
Text: as §1, §2, §3, §4, §5

N#CCOC(=O)c1nc(-c2ccc3cc[nH]c3c2F)c(F)c(N)c1Cl [Compound A, cyanomethyl 4-amino-3-chloro-5-fluoro-6-(7-fluoro-1H-indol-6-yl)pyridine-2-carboxylate]
Obs % visual injury ([1]; Table 3, Compound A 7.5 g/ha): 8%
Obs % visual injury ([1]; Table 3, Compound A 10 g/ha): 5%
Obs % visual injury ([1]; Table 3, Compound A 15 g/ha): 3%
Obs % visual injury ([1]; Table 4, Compound A 7.5 g/ha): 8%
Obs % visual injury ([1]; Table 4, Compound A 10 g/ha): 5%
Obs % visual injury ([1]; Table 4, Compound A 15 g/ha): 3%
Obs % visual injury ([2]; Table 3, Compound A 7.5 g/ha): 3%
Obs % visual injury ([2]; Table 3, Compound A 10 g/ha): 3%
Obs % visual injury ([2]; Table 3, Compound A 15 g/ha): 0%
Obs % visual injury ([2]; Table 4, Compound A 7.5 g/ha): 3%
Obs % visual injury ([2]; Table 4, Compound A 10 g/ha): 3%
Obs % visual injury ([2]; Table 4, Compound A 15 g/ha): 0%
Obs % visual injury ([3]; Compound A 7.5 g/ha): 30%
Obs % visual injury ([3]; Compound A 10 g/ha): 8%
Obs % visual injury ([4]; Table 3, Compound A 7.5 g/ha): 60%
Obs % visual injury ([4]; Table 3, Compound A 10 g/ha): 60%
Obs % visual injury ([4]; Table 3, Compound A 15 g/ha): 75%
Obs % visual injury ([4]; Table 4, Compound A 7.5 g/ha): 60%
Obs % visual injury ([4]; Table 4, Compound A 10 g/ha): 60%
Obs % visual injury ([4]; Table 4, Compound A 15 g/ha): 75%
Obs % visual injury ([5]; Table 1, Compound A 7.5 g/ha): 68%
Obs % visual injury ([5]; Table 1, Compound A 10 g/ha): 80%
Obs % visual injury ([5]; Table 2, Compound A 7.5 g/ha): 68%
Obs % visual injury ([5]; Table 2, Compound A 10 g/ha): 78%
Obs % visual injury ([6]; Compound A 7.5 g/ha): 80%
Obs % visual injury ([6]; Compound A 10 g/ha): 90%
Obs % visual injury ([7]; Table 1, Compound A 7.5 g/ha): 20%
Obs % visual injury ([7]; Table 1, Compound A 10 g/ha): 25%
Obs % visual injury ([7]; Table 2, Compound A 7.5 g/ha): 3%
Obs % visual injury ([7]; Table 2, Compound A 10 g/ha): 8%
Obs % visual injury ([8]; Compound A 7.5 g/ha): 89%
Obs % visual injury ([8]; Compound A 10 g/ha): 90%
Obs % visual injury ([9]; Compound A 7.5 g/ha): 20%
Obs % visual injury ([9]; Compound A 10 g/ha): 13%
Obs % visual injury ([10]; Table 1, Compound A 7.5 g/ha): 40%
Obs % visual injury ([10]; Table 1, Compound A 10 g/ha): 60%
Obs % visual injury ([10]; Table 2, Compound A 7.5 g/ha): 23%
Obs % visual injury ([10]; Table 2, Compound A 10 g/ha): 20%
Obs % visual injury ([11]; Compound A 7.5 g/ha): 97%
Obs % visual injury ([11]; Compound A 10 g/ha): 97%
Obs % visual injury ([12]; Table 1, Compound A 7.5 g/ha): 88%
Obs % visual injury ([12]; Table 1, Compound A 10 g/ha): 80%
Obs % visual injury ([12]; Table 2, Compound A 7.5 g/ha): 73%
Obs % visual injury ([12]; Table 2, Compound A 10 g/ha): 78%
Obs % visual injury ([13]; Table 1, Compound A 7.5 g/ha): 65%
Obs % visual injury ([13]; Table 1, Compound A 10 g/ha): 65%
Obs % visual injury ([13]; Table 2, Compound A 7.5 g/ha): 73%
Obs % visual injury ([13]; Table 2, Compound A 10 g/ha): 83%
